The target in data set [1] is PDE 1 (Ca-calmodulin activatable PDE). Kind of data set: Phosphodiesterase inhibiting activity, PDE 1. Type of data set: biochemical. As to conditions: isozyme from dog heart; 1 μM [3H]-cAMP or [3H]-cGMP; read-out: Inhibition of PDE Activity: IC50 PDE 1. The method, then:
(§1) Pharmacological Test Example 1: Phosphodiesterase Inhibiting Activity
(§2) Cyclic nucleotide phosphodiesterases from human platelets and from the heart and kidney of a dog were eluted by the concentration gradient method with 70 to 1000 mM of sodium acetate on DEAE-cellulose column chromatography (Whatman Co. Ltd., DE-52, φ3.2×13 cm) according to the method of Thompson and others (Thompson W. J., et al., Advances in Cyclic Nucleotide Research: 10, 69-92, 1979), and separated into isozymes. PDE 5 (cGMP specific PDE) and PDE 3 (cGMP inhibitable cAMP PDE) were separated from the platelets, PDE 1 (Ca-calmodulin activatable PDE) from the heart, and PDE 4 (cGMP non-inhibitable cAMP PDE) from the kidney. The method of Thompson, et al was partially modified to measure phosphodiesterase activities: 1 μM of [3H]-cAMP or [3H]-cGMP was decomposed with phosphodiesterase. The produced 5′-AMP or 5′-GMP was decomposed to adenosine or guanosine with a snake venom (Sigma V7000). The reaction solution was added to anion exchange resin (Bio-Rad Co. Ltd., AG1-X8). Non-adsorbed adenosine or guanosine was counted by a liquid scintillation counter. A concentration causing 50% inhibition of the enzyme activity (IC50) was calculated from concentration inhibition curves.

The next data set has as its target T1, PDE 2 (Homo sapiens, UniProt O00408).
T1 construct: eluted by the concentration gradient method with 70 to 1000 mM of sodium acetate on DEAE-cellulose column chromatography; from tissue
Kind of data set: Phosphodiesterase inhibiting activity, PDE 2. It counts as biochemical. The settings on record: 1 μM [3H]-cAMP or [3H]-cGMP; source of isozyme not given; read-out: Inhibition of PDE Activity: IC50 PDE 2. The method, then: [Worded in the source for another target; this target is reported under the same test.] as §1, §2

The target of data set [2] is T2, PDE 3 (cGMP inhibitable cAMP PDE) (Homo sapiens, UniProt Q14432).
T2 construct: from tissue; host or cells: human platelets
T2 sequence (Q14432 whole entry): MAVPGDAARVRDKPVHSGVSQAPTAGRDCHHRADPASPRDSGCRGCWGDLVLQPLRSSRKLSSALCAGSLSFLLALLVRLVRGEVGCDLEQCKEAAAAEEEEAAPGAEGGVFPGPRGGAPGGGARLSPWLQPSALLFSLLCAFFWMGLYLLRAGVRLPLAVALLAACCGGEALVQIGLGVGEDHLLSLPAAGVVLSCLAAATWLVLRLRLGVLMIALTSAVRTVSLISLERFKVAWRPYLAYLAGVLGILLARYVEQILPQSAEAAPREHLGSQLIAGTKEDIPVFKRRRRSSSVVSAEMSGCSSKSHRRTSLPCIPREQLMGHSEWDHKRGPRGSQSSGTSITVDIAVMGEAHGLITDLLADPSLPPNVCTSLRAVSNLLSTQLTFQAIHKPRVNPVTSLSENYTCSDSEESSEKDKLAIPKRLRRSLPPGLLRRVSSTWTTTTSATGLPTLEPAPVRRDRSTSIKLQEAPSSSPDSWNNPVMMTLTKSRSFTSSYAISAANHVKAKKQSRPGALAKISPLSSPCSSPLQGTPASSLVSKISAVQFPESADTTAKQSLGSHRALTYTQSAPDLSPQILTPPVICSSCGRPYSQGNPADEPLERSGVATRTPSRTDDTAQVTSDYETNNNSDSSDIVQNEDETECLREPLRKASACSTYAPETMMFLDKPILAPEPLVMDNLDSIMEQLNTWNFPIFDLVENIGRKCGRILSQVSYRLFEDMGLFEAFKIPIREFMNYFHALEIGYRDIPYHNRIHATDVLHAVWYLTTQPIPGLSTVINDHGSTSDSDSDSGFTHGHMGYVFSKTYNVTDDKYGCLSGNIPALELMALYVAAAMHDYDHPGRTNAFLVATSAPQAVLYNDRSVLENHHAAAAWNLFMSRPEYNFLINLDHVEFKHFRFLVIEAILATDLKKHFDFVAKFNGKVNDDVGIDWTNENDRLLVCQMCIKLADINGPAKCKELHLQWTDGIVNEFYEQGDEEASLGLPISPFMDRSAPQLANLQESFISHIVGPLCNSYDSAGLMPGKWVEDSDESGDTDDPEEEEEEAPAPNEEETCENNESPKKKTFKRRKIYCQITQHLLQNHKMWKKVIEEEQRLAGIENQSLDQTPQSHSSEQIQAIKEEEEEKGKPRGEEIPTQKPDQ
Kind of data set: Phosphodiesterase inhibiting activity, PDE 3. It counts as biochemical. The settings on record: isozyme from human platelets; 1 μM [3H]-cAMP or [3H]-cGMP; read-out: Inhibition of PDE Activity: IC50 PDE 3. The method, then:
as §1, §2

Data set [3] has as its target PDE 4 (cGMP non-inhibitable cAMP PDE). Kind of data set: Phosphodiesterase inhibiting activity, PDE 4. It counts as biochemical. As to conditions: isozyme from dog kidney; 1 μM [3H]-cAMP or [3H]-cGMP; read-out: Inhibition of PDE Activity: IC50 PDE 4. The procedure: as §1, §2
Data set [4] deals with T3, PDE 5 (cGMP specific PDE) (Homo sapiens, UniProt O76074).
T3 construct: from tissue; host or cells: human platelets
Kind of data set: Phosphodiesterase inhibiting activity, PDE 5. It counts as biochemical. The settings on record: isozyme from human platelets; 1 μM [3H]-cAMP or [3H]-cGMP; read-out: Inhibition of PDE Activity: IC50 PDE 5. The procedure: as §1, §2

The next data set has as its system thoracic aortas. Kind of data set: Vasodilating activity, phenylephrine-contracted thoracic aorta ring preparations (Magnus method). The settings on record: rat thoracic aorta ring preparations contracted with 1 μM phenylephrine, 37° C., drug added cumulatively. Set-up: species or system Sprague-Dawley male rats. The method, then: Pharmacological Test Example 2: Vasodilating Activity
A vasodilating activity was assessed according to the method of Ken-ichi Hirata and Mitsuhiro Yokoyama (Arteriosclerosis and Hyperlipemia Research Strategies, published by Shujunsha (Japan), pages 275-277, 1996): The thoracic aortas were extracted from Sprague-Dawley male rats (weighing 180 to 360 g). After unnecessary connective tissues were removed, the aortas were cut to 5mm-long pieces to make ring strip preparations, and assessed by the Magnus method (37° C.). A nutrient solution used was a Krebs-Henseleit solution aerated with 5% carbon dioxide gas and 95% oxygen gas. Specimens were equilibrated for about 60 minutes, and then contracted by adding 1 μM of phenylephrine. 1 μM of acetylcholine was added at the second phenylepherine-induced contraction in order to confirm an endothelial cell dependent relaxation response. At the third phenylepherine-induced contraction, a drug to test was added cumulatively, and the relaxation action was observed. Drugs to test were all dissolved in DMSO to use for the tests. The tested drugs were assessed by 50% relaxation rates (EC50) obtained from vasodilation rates to respective concentrations (the maximum relaxation was measured by adding 100 μM of papaverine).

T1 sequence (O00408 whole entry): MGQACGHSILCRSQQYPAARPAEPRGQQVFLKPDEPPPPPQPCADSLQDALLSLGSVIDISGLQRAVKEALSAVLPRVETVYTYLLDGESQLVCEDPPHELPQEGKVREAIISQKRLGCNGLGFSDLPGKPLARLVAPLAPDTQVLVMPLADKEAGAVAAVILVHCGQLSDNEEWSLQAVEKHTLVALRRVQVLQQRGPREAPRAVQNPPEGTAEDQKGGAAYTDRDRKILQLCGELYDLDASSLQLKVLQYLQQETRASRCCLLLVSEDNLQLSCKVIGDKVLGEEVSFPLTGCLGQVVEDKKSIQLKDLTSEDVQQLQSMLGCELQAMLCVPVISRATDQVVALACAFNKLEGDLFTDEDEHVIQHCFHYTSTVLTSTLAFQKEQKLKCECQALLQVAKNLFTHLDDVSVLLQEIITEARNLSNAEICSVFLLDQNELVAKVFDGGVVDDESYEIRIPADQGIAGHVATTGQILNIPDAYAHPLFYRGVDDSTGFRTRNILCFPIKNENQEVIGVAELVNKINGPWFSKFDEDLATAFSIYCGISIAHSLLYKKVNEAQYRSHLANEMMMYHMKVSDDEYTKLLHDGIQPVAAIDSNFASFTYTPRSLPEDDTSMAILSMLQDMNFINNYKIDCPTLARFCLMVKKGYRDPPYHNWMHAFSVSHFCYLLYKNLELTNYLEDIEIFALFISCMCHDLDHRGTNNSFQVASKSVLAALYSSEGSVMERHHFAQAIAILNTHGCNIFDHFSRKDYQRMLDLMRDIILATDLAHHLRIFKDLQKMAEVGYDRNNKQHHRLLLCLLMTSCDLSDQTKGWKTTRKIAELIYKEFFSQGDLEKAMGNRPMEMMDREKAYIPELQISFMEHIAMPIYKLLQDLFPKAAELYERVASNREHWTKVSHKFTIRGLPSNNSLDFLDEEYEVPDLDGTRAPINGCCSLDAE

As for `COc1ccc(CNc2nc(-c3cccnc3)nc3sc4c(c23)CCN(Cc2ccccc2)C4)cc1Cl` [1-4], the IC50 in data set [1] was more than 10 µM; at PDE 2, 2.7 µM; in data set [2] it was 6.1 µM; in data set [3], 2 µM; in data set [4] it was 0.0026 µM. In addition, in the data set on thoracic aortas, the EC50 stood at 0.019 µM.

Take `COc1ccc(CNc2nc(C(=O)Nc3ccccc3)nc3sc4c(c23)CCN(Cc2ccccc2)C4)cc1Cl` [1-67]: the IC50 in data set [1] was more than 10 µM; at PDE 2, more than 10 µM; in data set [2], more than 10 µM; in data set [3] it was more than 10 µM; in data set [4] it was 0.00039 µM. The compound also returned an EC50 in the data set with thoracic aortas of 0.082 µM.

As to `COc1ccc(CNc2nc(C(N)=O)nc3sc4c(c23)CCN(C)C4)cc1Cl` [1-83], the IC50 was 1.3 µM in data set [1]; 3.1 µM on PDE 2; more than 10 µM in data set [2]; more than 10 µM in data set [3]; 0.075 µM in data set [4].

As for `COC(=O)c1ccc(NC(=O)c2nc(NCc3ccc(OC)c(Cl)c3)c3c4c(sc3n2)CN(C)CC4)cc1` [1-80], the IC50 is more than 10 µM in data set [1]; 3.3 µM on PDE 2; more than 10 µM in data set [2]; 4.1 µM in data set [3]; 0.053 µM in data set [4]. The same compound came in with an EC50 with thoracic aortas of 0.025 µM.

Regarding `COc1ccc(CNc2nc(C(=O)Nc3ccncc3)nc3sc4c(c23)CCN(C)C4)cc1Cl` [1-58], the half-inhibitory concentration (IC50) was more than 10 µM in data set [1]; more than 10 µM on PDE 2; more than 10 µM in data set [2]; more than 10 µM in data set [3]; 0.0021 µM in data set [4]. This compound came in with an EC50 in the data set on thoracic aortas of 0.0051 µM.

As for `COc1ccc(CNc2nc(C(=O)Nc3nccs3)nc3sc4c(c23)CCN(C)C4)cc1Cl` [1-57], the IC50 in data set [1] was more than 10 µM; on PDE 2, more than 10 µM; in data set [2] it was more than 10 µM; in data set [3], more than 10 µM; in data set [4], 0.00055 µM. In the data set on thoracic aortas, the EC50 came to 0.0027 µM.

Take `COc1ccc(CNc2nc(C(=O)Nc3ccc(-n4ccnc4)cc3)nc3sc4c(c23)CCN(C)C4)cc1Cl` [1-59]: the IC50 in data set [1] is more than 10 µM; on PDE 2, 6.1 µM; in data set [2], 7.6 µM; in data set [3], 3.4 µM; in data set [4] it was 0.078 µM. In the data set with thoracic aortas, the EC50 was found to be 0.0076 µM.

In the case of `CCOC(=O)c1nc(NCc2ccc(OC)c(Cl)c2)c2c3c(sc2n1)CN(C)CC3` [1-69, ethyl 5,6,7,8-tetrahydro-4-[(3-chloro-4-methoxy)benzylamino]-7-methylpyrido[4′,3′:4,5]thieno[2,3-d]pyrimidine-2-carboxylate], the IC50 was more than 10 µM in data set [1]; more than 10 µM on PDE 2; more than 10 µM in data set [2]; more than 10 µM in data set [3]; 0.031 µM in data set [4]. In the data set on thoracic aortas, the 50% effective concentration (EC50) stood at 0.018 µM.

`COc1ccc(CNc2nc(C(=O)Nc3ccccc3)nc3sc4c(c23)CCCC4)cc1Cl` [3-2] returned a melting point of 210 to 211 °C. Also, the IC50 in data set [1] was more than 10 µM. Besides, the IC50 on PDE 2 was more than 10 µM. The half-maximal inhibitory concentration (IC50) in data set [2] is more than 10 µM. In data set [3], the IC50 was more than 10 µM. In addition, the 50% inhibitory concentration (IC50) in data set [4] stood at 0.00039 µM.

For `COc1ccc(CNc2nc(-c3cccnc3)nc3sc4c(c23)CCN(C(C)=O)C4)cc1Cl` [1-9, 5,6,7,8-tetrahydro-4-[(3-chloro-4-methoxy)benzylamino]-7-acetyl-2-(3-pyridyl)pyrido[4′,3′:4,5]thieno[2,3-d]pyrimidine], the melting point lay in the range of 226 to 227 °C. For the same compound, it took 0.0063 µM to reach a half-maximal effect in the data set with thoracic aortas (EC50).

Take `COc1ccc(CNc2nc(C(=O)Nc3ccccc3Cl)nc3sc4c(c23)CCN(C)C4)cc1Cl` [1-60]: the IC50 is more than 10 µM in data set [1]; more than 10 µM at PDE 2; more than 10 µM in data set [2]; 3.6 µM in data set [3]; 0.014 µM in data set [4]. The same compound gave an EC50 in the data set with thoracic aortas of 0.0075 µM.

`COc1ccc(CNc2nc(-c3ccc4c(c3)OCO4)nc3sc4c(c23)CCN(Cc2ccccc2)C4)cc1Cl` [1-1]: the IC50 in data set [1] was more than 10 µM; at PDE 2 it was 3.9 µM; in data set [2], more than 10 µM; in data set [3] it was more than 10 µM; in data set [4], 0.00092 µM. The same compound came in with an EC50 with thoracic aortas of 0.086 µM.

Consider `COc1ccc(CNc2nc(C(=O)Nc3ccccc3)nc3sc4c(c23)CCN(C)C4)cc1Cl` [1-72], for which the IC50 is more than 10 µM in data set [1]; more than 10 µM at PDE 2; more than 10 µM in data set [2]; more than 10 µM in data set [3]; 0.0018 µM in data set [4]. It took 0.0074 µM to reach a half-maximal effect with thoracic aortas (EC50).

On to `COc1ccc(CNc2nc(C(=O)NC3CCCCC3)nc3sc4c(c23)CCN(C)C4)cc1Cl` [1-63], for which the IC50 was more than 10 µM in data set [1]; more than 10 µM at PDE 2; more than 10 µM in data set [2]; more than 10 µM in data set [3]; 0.00038 µM in data set [4]. This compound also yielded an EC50 with thoracic aortas of 0.0048 µM.

On to `COc1ccc(NC(=O)c2nc(NCc3ccc(OC)c(Cl)c3)c3c4c(sc3n2)CN(C)CC4)cc1` [1-62], for which the IC50 in data set [1] is more than 10 µM; on PDE 2 it was more than 10 µM; in data set [2], more than 10 µM; in data set [3], more than 10 µM; in data set [4], 0.0024 µM. In the data set on thoracic aortas, this compound showed an EC50 of 0.0072 µM.

Turning to `CCOc1ccccc1NC(=O)c1nc(NCc2ccc(OC)c(Cl)c2)c2c3c(sc2n1)CN(C(C)C)CC3` [1-55], the IC50 in data set [1] is more than 10 µM; on PDE 2 it was more than 10 µM; in data set [2], more than 10 µM; in data set [3], 2 µM; in data set [4] it was 0.062 µM. For the same compound, a half-maximal response in the data set on thoracic aortas (EC50) required 0.18 µM.

Take `COc1ccc(CNc2nc(C(=O)Nc3ccccc3)nc3sc4c(c23)CCN(C(C)C)C4)cc1Cl` [1-75]: the IC50 in data set [1] was more than 10 µM; at PDE 2, more than 10 µM; in data set [2], more than 10 µM; in data set [3] it was 8.4 µM; in data set [4], 0.0014 µM. Besides, in the data set with thoracic aortas, the EC50 stood at 0.0093 µM.

For `CCOC(=O)N1CCc2c(sc3nc(-c4cccnc4)nc(NCc4ccc(OC)c(Cl)c4)c23)C1` [1-15, 5,6,7,8-tetrahydro-4-[(3-chloro-4-methoxy)benzylamino]-7-ethoxycarbonyl-2-(3-pyridyl)pyrido[4′,3′:4,5]thieno[2,3-d]pyrimidine], the EC50 with thoracic aortas is 0.0021 µM.

Turning to `CCOC(=O)Cc1nc(NCc2ccc(OC)c(Cl)c2)c2c3c(sc2n1)C(=O)N(C(C)C)CC3` [2-10], the IC50 in data set [1] was more than 10 µM; at PDE 2, more than 10 µM; in data set [2], 7.4 µM; in data set [3] it was 8 µM; in data set [4] it was 0.039 µM. In the data set on thoracic aortas, the EC50 was 0.018 µM.

As to `COc1ccc(CNc2nc(C(=O)NCc3ccccc3)nc3sc4c(c23)CCN(C)C4)cc1Cl` [1-79], the IC50 in data set [1] is 0.67 µM; on PDE 2, more than 10 µM; in data set [2], more than 10 µM; in data set [3], 5.1 µM; in data set [4] it was 0.016 µM. This compound showed an EC50 in the data set with thoracic aortas of 0.018 µM.

Take `COc1ccc(CNc2nc(C(=O)Nc3ccc(Cl)cc3)nc3sc4c(c23)CCN(C)C4)cc1Cl` [1-61, 5,6,7,8-tetrahydro-4-[(3-chloro-4-methoxy)benzylamino]-7-methylpyrido[4′,3′:4,5]thieno[2,3-d]pyrimidine-2-N-(4-chlorophenyl)carboxamide]: the IC50 was more than 10 µM in data set [1]; more than 10 µM at PDE 2; more than 10 µM in data set [2]; more than 10 µM in data set [3]; 0.00092 µM in data set [4]. Besides, in the data set on thoracic aortas, the EC50 was 0.0087 µM.

For the origin of these results see US6482948B1, “Thienopyrimidine compounds and salts thereof and process for the preparation of the same” (Nippon Soda Co., Ltd., priority 1999, dated 2002).
